Assay results taken from ChEMBL document CHEMBL4725363 (J Med Chem, 2020).
pIC50: −log10 of the molar value. Calls of active or inactive are those of the source. No cut-off for these calls is given here.

Columns and labels:
[1] = Inhibition of human PDE5A1 D563A mutant expressed in Escherichia coli BL21 incubated for 15 mins using [3H]-cGMP as substrate by liquid scintillation counting method
[2] = target: cGMP-specific 3',5'-cyclic phosphodiesterase (Homo sapiens, UniProt O76074); test: Inhibition of human PDE5A1 (535-860 residues) expressed in Escherichia coli BL21 incubated for 15 mins using [3H]-cGMP as substrate by liquid scintillation counting method
[3] = system: COc1ccc2c3c([nH]c2c1)[C@@H]1N(CC3)C(=O)c2c(OC)cccc2N1C; test: Negative allosteric modulator activity at human PDE5A1 (535-860 residues) expressed in Escherichia coli BL21 assessed as Km for cGMP at 200 nM incubated for 15 mins using [3H]-cGMP as substrate by liquid scintillation counting method (reference value: 4.22 +/- 0.45 uM); conditions: filed as negative allosteric modulator
[4] = system: COc1ccc2c3c([nH]c2c1)[C@@H]1N(CC3)C(=O)c2c(OC)cccc2N1C; test: Negative allosteric modulator activity at human PDE5A1 (535-860 residues) expressed in Escherichia coli BL21 assessed as Km for cGMP at 25 nM incubated for 15 mins using [3H]-cGMP as substrate by liquid scintillation counting method (reference value: 4.22 +/- 0.45 uM); conditions: filed as negative allosteric modulator
[5] = system: COc1ccc2c3c([nH]c2c1)[C@@H]1N(CC3)C(=O)c2c(OC)cccc2N1C; test: Negative allosteric modulator activity at human PDE5A1 (535-860 residues) expressed in Escherichia coli BL21 assessed as Kcat for cGMP at 100 nM incubated for 15 mins using [3H]-cGMP as substrate by liquid scintillation counting method (reference value: 2.53 +/- 0.24 /s); conditions: filed as negative allosteric modulator
[6] = system: COc1ccc2c3c([nH]c2c1)[C@@H]1N(CC3)C(=O)c2c(OC)cccc2N1C; test: Negative allosteric modulator activity at human PDE5A1 (535-860 residues) expressed in Escherichia coli BL21 assessed as Kcat/Km ratio for cGMP at 200 nM incubated for 15 mins using [3H]-cGMP as substrate by liquid scintillation counting method (reference value: 0.6 +/- 0.04 /s/microM); conditions: filed as negative allosteric modulator
[7] = system: COc1ccc2c3c([nH]c2c1)[C@@H]1N(CC3)C(=O)c2c(OC)cccc2N1C; test: Negative allosteric modulator activity at human PDE5A1 (535-860 residues) expressed in Escherichia coli BL21 assessed as Km for cGMP at 50 nM incubated for 15 mins using [3H]-cGMP as substrate by liquid scintillation counting method (reference value: 4.22 +/- 0.45 uM); conditions: filed as negative allosteric modulator
[8] = system: COc1ccc2c3c([nH]c2c1)[C@@H]1N(CC3)C(=O)c2c(OC)cccc2N1C; test: Negative allosteric modulator activity at human PDE5A1 (535-860 residues) expressed in Escherichia coli BL21 assessed as Km for cGMP at 100 nM incubated for 15 mins using [3H]-cGMP as substrate by liquid scintillation counting method (reference value: 4.22 +/- 0.45 uM); conditions: filed as negative allosteric modulator
[9] = system: COc1ccc2c3c([nH]c2c1)[C@@H]1N(CC3)C(=O)c2c(OC)cccc2N1C; test: Negative allosteric modulator activity at human PDE5A1 (535-860 residues) expressed in Escherichia coli BL21 assessed as Kcat/Km ratio for cGMP at 100 nM incubated for 15 mins using [3H]-cGMP as substrate by liquid scintillation counting method (reference value: 0.6 +/- 0.04 /s/microM); conditions: filed as negative allosteric modulator
[10] = system: COc1ccc2c3c([nH]c2c1)[C@@H]1N(CC3)C(=O)c2c(OC)cccc2N1C; test: Negative allosteric modulator activity at human PDE5A1 (535-860 residues) expressed in Escherichia coli BL21 assessed as Kcat for cGMP at 50 nM incubated for 15 mins using [3H]-cGMP as substrate by liquid scintillation counting method (reference value: 2.53 +/- 0.24 /s); conditions: filed as negative allosteric modulator
[11] = system: COc1ccc2c3c([nH]c2c1)[C@@H]1N(CC3)C(=O)c2c(OC)cccc2N1C; test: Negative allosteric modulator activity at human PDE5A1 (535-860 residues) expressed in Escherichia coli BL21 assessed as Kcat for cGMP at 200 nM incubated for 15 mins using [3H]-cGMP as substrate by liquid scintillation counting method (reference value: 2.53 +/- 0.24 /s); conditions: filed as negative allosteric modulator
[12] = system: COc1ccc2c3c([nH]c2c1)[C@@H]1N(CC3)C(=O)c2c(OC)cccc2N1C; test: Negative allosteric modulator activity at human PDE5A1 (535-860 residues) expressed in Escherichia coli BL21 assessed as Kcat/Km ratio for cGMP at 25 nM incubated for 15 mins using [3H]-cGMP as substrate by liquid scintillation counting method (reference value: 0.6 +/- 0.04 /s/microM); conditions: filed as negative allosteric modulator
[13] = system: COc1ccc2c3c([nH]c2c1)[C@@H]1N(CC3)C(=O)c2c(OC)cccc2N1C; test: Negative allosteric modulator activity at human PDE5A1 (535-860 residues) expressed in Escherichia coli BL21 assessed as Kcat/Km ratio for cGMP at 50 nM incubated for 15 mins using [3H]-cGMP as substrate by liquid scintillation counting method (reference value: 0.6 +/- 0.04 /s/microM); conditions: filed as negative allosteric modulator
[14] = system: COc1ccc2c3c([nH]c2c1)[C@@H]1N(CC3)C(=O)c2c(OC)cccc2N1C; test: Negative allosteric modulator activity at human PDE5A1 (535-860 residues) expressed in Escherichia coli BL21 assessed as Kcat for cGMP at 25 nM incubated for 15 mins using [3H]-cGMP as substrate by liquid scintillation counting method (reference value: 2.53 +/- 0.24 /s); conditions: filed as negative allosteric modulator
[15] = target: High affinity 3',5'-cyclic-AMP phosphodiesterase 7A (Homo sapiens, UniProt Q13946); test: Inhibition of PDE7A1 catalytic domain (130 to 482 residues) (unknown origin) using [3H]-cAMP as substrate after 15 mins by liquid scintillation counting method
[16] = target: cAMP and cAMP-inhibited cGMP 3',5'-cyclic phosphodiesterase 10A (Homo sapiens, UniProt Q9Y233); test: Inhibition of human PDE10A catalytic domain (449 to 770 residues) using [3H]-cAMP as substrate after 15 mins by liquid scintillation counting method
[17] = target: Dual specificity calcium/calmodulin-dependent 3',5'-cyclic nucleotide phosphodiesterase 1B (Homo sapiens, UniProt Q01064); test: Inhibition of human PDE1B (10-487 residues) expressed in Sf9 cells incubated for 15 mins using [3H]-cGMP as substrate by liquid scintillation counting method
[18] = target: T1, DNA topoisomerase 1 (Homo sapiens) (UniProt P11387); test: Inhibition of Top (unknown origin) mediated supercoiled DNA relaxation at 100 uM
T1 sequence (whole entry): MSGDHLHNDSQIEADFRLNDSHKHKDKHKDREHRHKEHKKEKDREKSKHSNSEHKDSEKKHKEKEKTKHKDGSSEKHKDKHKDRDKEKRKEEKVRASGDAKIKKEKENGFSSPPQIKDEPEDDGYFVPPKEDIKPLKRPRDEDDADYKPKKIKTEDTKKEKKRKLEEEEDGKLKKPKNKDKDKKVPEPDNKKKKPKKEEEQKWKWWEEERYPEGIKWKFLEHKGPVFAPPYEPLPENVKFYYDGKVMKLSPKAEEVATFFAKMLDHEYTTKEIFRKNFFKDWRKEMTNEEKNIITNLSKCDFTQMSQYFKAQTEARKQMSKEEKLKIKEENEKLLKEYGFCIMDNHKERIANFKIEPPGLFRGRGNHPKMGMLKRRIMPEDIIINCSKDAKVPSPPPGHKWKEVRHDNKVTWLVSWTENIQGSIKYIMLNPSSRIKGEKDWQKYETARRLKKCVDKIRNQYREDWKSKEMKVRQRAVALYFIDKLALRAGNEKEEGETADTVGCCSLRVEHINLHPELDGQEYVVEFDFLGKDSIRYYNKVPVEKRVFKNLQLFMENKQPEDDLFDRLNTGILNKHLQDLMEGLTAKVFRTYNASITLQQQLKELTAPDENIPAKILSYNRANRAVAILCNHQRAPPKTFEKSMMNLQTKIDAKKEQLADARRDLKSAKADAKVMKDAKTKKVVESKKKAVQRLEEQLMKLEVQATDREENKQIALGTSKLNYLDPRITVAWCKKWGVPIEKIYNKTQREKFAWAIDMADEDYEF

[19] = target: Dual 3',5'-cyclic-AMP and -GMP phosphodiesterase 11A (Homo sapiens, UniProt Q9HCR9); test: Inhibition of PDE11A catalytic domain (unknown origin) using [3H]-cAMP or [3H]-[…] as substrate after 15 mins by liquid scintillation counting method
[20] = target: DNA topoisomerase 2-alpha (Homo sapiens) (UniProt P11388); test: Inhibition of Top2 (unknown origin) mediated supercoiled DNA relaxation at 100 uM
[21] = species: Homo sapiens; test: Selectivity index, ratio of IC50 for human PDE6C to IC50 for human PDE5A1

Dual specificity calcium/calmodulin-dependent 3',5'-cyclic nucleotide phosphodiesterase 1B, sequence (Q01064 whole entry, the tested form may be a part): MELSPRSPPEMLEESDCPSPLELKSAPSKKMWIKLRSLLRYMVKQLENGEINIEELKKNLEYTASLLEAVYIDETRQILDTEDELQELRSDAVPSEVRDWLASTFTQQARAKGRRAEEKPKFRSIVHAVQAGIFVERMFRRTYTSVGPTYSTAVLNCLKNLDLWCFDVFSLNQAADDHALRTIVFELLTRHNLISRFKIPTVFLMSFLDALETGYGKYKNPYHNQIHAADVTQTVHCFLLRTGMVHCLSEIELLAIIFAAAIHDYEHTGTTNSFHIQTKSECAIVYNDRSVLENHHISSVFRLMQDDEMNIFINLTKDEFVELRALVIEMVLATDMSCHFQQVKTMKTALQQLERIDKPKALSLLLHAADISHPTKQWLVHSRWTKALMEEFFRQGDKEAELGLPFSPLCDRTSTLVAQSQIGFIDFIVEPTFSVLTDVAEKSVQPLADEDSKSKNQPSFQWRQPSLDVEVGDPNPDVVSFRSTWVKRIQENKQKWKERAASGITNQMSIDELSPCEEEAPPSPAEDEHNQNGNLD
cAMP and cAMP-inhibited cGMP 3',5'-cyclic phosphodiesterase 10A, sequence (Q9Y233 whole entry, the tested form may be a part): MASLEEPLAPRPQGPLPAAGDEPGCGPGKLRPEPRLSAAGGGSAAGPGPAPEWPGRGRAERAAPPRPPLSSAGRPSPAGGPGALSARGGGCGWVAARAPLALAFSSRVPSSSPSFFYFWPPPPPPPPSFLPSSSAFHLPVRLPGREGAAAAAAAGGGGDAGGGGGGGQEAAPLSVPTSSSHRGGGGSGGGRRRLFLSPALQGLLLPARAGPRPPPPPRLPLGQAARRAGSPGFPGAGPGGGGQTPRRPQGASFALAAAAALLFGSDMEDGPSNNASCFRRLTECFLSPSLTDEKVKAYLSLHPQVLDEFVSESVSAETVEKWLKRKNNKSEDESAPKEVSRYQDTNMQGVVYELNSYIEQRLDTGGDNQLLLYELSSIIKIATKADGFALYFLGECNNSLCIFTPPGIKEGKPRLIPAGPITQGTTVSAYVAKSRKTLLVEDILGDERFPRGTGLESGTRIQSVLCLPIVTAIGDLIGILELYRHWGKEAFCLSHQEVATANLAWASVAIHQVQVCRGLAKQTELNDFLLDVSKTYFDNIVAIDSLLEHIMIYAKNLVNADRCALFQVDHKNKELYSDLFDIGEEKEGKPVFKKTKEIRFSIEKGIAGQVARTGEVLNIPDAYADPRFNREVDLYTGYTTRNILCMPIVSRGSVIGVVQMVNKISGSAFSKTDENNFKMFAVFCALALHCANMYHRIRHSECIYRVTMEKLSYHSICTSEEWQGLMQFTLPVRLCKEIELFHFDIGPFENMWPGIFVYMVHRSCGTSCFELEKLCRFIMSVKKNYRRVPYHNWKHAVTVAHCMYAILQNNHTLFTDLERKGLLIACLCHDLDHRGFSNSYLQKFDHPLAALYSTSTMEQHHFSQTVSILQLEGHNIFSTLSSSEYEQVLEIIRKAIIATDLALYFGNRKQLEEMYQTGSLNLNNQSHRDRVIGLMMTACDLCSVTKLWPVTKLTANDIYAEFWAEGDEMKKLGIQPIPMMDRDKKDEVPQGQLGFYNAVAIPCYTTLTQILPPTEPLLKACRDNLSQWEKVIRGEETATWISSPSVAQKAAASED
DNA topoisomerase 2-alpha (Homo sapiens), sequence (P11388 whole entry): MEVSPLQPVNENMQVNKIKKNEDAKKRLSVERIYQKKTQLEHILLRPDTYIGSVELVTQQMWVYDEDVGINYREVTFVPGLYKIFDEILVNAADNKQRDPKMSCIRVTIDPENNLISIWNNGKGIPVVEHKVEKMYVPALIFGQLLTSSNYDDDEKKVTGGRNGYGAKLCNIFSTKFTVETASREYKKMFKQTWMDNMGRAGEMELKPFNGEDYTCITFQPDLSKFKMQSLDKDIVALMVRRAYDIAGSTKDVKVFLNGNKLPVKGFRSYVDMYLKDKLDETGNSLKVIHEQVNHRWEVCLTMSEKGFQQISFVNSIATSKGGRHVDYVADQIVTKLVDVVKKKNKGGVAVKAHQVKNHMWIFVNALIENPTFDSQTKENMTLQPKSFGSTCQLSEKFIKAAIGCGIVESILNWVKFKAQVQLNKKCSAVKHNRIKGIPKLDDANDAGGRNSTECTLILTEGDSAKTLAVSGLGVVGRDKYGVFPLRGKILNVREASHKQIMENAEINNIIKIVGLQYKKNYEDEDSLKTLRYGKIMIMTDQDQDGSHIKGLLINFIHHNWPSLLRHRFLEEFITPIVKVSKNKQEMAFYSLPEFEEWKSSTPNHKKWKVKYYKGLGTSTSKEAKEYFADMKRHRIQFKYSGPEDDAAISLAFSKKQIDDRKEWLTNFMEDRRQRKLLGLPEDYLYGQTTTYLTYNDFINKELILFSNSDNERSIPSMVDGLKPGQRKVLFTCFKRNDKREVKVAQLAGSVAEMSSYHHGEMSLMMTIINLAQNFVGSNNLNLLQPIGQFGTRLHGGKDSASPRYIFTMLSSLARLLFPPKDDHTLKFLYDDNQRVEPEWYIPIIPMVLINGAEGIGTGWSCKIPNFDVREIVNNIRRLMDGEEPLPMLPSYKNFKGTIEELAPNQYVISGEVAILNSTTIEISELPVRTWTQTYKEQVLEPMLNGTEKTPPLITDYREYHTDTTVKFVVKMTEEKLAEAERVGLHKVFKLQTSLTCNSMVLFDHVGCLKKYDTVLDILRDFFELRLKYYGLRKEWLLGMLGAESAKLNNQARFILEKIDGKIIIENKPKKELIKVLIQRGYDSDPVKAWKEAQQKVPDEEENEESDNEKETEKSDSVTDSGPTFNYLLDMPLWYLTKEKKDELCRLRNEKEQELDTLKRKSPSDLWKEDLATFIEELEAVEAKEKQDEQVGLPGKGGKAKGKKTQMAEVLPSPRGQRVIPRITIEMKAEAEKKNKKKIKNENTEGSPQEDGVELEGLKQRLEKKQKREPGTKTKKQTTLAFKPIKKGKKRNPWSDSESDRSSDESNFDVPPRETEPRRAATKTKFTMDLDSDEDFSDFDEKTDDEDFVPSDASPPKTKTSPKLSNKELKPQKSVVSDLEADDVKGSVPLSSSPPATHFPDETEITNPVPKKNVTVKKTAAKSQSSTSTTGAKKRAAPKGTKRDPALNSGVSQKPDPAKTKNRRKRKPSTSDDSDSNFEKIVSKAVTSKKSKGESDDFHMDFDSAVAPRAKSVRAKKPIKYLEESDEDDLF
High affinity 3',5'-cyclic-AMP phosphodiesterase 7A, sequence (Q13946 whole entry, the tested form may be a part): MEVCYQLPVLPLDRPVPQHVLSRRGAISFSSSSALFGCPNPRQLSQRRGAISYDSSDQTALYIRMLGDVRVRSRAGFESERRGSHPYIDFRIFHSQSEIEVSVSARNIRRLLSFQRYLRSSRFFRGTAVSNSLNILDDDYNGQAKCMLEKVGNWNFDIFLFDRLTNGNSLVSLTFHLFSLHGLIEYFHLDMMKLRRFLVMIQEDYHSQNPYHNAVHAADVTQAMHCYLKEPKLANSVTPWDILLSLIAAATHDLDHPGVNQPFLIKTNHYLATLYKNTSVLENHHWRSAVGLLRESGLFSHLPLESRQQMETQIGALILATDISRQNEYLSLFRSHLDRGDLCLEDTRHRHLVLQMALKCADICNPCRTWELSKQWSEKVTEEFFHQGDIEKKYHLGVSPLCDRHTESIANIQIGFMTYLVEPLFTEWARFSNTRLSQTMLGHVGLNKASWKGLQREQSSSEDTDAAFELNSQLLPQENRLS
Dual 3',5'-cyclic-AMP and -GMP phosphodiesterase 11A, sequence (Q9HCR9 whole entry, the tested form may be a part): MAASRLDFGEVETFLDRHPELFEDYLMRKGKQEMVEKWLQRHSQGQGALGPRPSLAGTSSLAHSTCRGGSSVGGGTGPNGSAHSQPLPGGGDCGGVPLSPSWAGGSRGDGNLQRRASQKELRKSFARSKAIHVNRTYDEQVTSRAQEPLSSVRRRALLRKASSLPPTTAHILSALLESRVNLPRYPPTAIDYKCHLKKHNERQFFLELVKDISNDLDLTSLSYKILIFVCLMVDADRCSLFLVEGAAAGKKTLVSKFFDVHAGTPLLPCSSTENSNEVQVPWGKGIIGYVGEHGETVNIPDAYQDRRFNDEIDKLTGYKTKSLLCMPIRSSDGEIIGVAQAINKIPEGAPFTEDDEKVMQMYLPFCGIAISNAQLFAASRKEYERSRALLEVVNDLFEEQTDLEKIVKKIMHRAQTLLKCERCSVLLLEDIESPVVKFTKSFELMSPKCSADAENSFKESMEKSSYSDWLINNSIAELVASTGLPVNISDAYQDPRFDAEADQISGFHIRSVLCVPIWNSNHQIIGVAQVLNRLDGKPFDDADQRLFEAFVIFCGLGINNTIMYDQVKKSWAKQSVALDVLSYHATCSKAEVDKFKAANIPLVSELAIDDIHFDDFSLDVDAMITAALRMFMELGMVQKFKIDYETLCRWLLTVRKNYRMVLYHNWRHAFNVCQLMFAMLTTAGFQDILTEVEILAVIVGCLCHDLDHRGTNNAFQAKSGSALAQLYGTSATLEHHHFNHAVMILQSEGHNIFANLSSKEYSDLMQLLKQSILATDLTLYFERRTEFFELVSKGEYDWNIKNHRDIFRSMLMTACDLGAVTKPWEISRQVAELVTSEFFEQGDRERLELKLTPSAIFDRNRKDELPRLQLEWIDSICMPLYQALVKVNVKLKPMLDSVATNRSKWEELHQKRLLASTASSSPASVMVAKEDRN

Molecule `CCCc1nn(C)c2c(=O)[nH]c(-c3cc(S(=O)(=O)N4CCN(C)CC4)ccc3OCC)nc12` has a pIC50 [1] of 8.92.

Molecule `CN1c2cccc(O)c2C(=O)N2CCc3c([nH]c4ccccc34)[C@@H]21` has a pIC50 [2] of less than 5.00.

`CN1c2ccccc2C(=O)N2CCc3c([nH]c4ccccc34)C21` (stereo not drawn) gave a pIC50 [2] of 5.68.

“cGMP-specific 3',5'-cyclic phosphodiesterase (Homo sapiens) (from UniProt O76074)” gave a Km [3] of 12.5 µM, a Km [4] of 11.8 µM and a kcat [5] of 1.48 s⁻¹. The kcat/Km [6] was 84000 M⁻¹ s⁻¹, the Km [7] was 11.8 µM and the Km [8] was 13.2 µM. For the same molecule, the kcat/Km [9] was 110000 M⁻¹ s⁻¹, the kcat [10] was 1.51 s⁻¹ and the kcat [11] was 1.05 s⁻¹. For the same molecule, the kcat/Km [12] was 170000 M⁻¹ s⁻¹, the kcat/Km [13] was 130000 M⁻¹ s⁻¹ and the kcat [14] was 1.99 s⁻¹.

With `CN1c2cccc(O)c2C(=O)N2CCc3c([nH]c4ccccc34)C21` (stereo not drawn) the pIC50 [2] was 5.77.

`CN1c2cccc(O)c2C(=O)N2CCc3c([nH]c4ccccc34)[C@H]21` gave a pIC50 [2] of 6.38.

With `COc1cccc2c1C(=O)N1CCc3c([nH]c4ccccc34)[C@@H]1N2C` the pIC50 [2] was 5.59.

Work on `CN1c2ccccc2C(=O)N2CCc3c([nH]c4ccccc34)[C@H]21` yielded a pIC50 [2] of 5.89.

In the case of `CN1c2ccccc2C(=O)N2CCc3c([nH]c4ccccc34)[C@@H]21` [EVODIAMINE], the pIC50 [2] was less than 4.30.

For `COc1cccc2c1C(=O)N1CCc3c([nH]c4cccc(OC)c34)[C@H]1N2C`, the pIC50 [15] was less than 4.70, the pIC50 [16] was 5.66 and the pIC50 [17] was less than 4.70. The inhibition [18] was “inactive”, the pIC50 [2] was 7.46 and the pIC50 [19] was less than 4.70. For the same molecule, the inhibition [20] was “inactive”.

`COc1cccc2c1C(=O)N1CCc3c([nH]c4ccccc34)C1N2C` (stereo not drawn) showed a pIC50 [2] of 6.47 and a Ratio IC50 [21] greater than 64.

`COc1cccc2c1C(=O)N1CCc3c([nH]c4ccccc34)[C@H]1N2C` gave a pIC50 [2] of 6.96 and a Ratio IC50 [21] greater than 190.

In the case of `COc1ccc2c3c([nH]c2c1)C1N(CC3)C(=O)c2c(OC)cccc2N1C` (stereo not drawn), the pIC50 [2] was 7.28.

With `COc1ccc2c3c([nH]c2c1)[C@H]1N(CC3)C(=O)c2c(OC)cccc2N1C` the pIC50 [2] was less than 5.00.
